Experimental data from patent publication US20250082557A1, “COMPOSITION FOR ENHANCING SKIN VITALITY CONTAINING A THYMOL ESTER-BASED COMPOUND” (Amorepacific Corporation, priority 2023, published 2025).

Columns and labels:
skin fibroblasts = assay: Mitochondrial activity: maximal oxygen consumption rate (OCR), Seahorse XF cell mitochondrial stress test; type: cell-based
Text: Specifically, the Seahorse XF Pro analyzer equipment from Agilent was used, and the mitochondrial activity (ATP energy production efficiency), i.e., the maximal oxygen consumption rate (OCR), was observed according to the standard protocol provided with the Seahorse XF cell mitochondrial stress measurement kit provided by the company (FIG. 2).

[1] = system: mitophagy marker genes (VDAC, Parkin, PINK); assay: Expression of mitophagy marker genes (VDAC, Parkin, PINK) by RT-PCR; type: cell-based; conditions: fibroblasts, hydrocortisone 10 μM and MELASOLV 5.5 μg/ml for 24 hours; FIGS. 3 to 5
Experimental: Fibroblasts were seeded in 10 cm^2 cell culture dishes at a concentration of 3×10^5 cells/dish and cultured in 10 ml of minimum essential medium eagle (MEM) medium containing 10% fetal bovine serum (FBS) and 1% penicillin streptomycin. After 24 hours, the cells reached approximately 70%, and the cells were treated with (1) DMSO (control), (2) hydrocortisone (10 μM) alone, or (3) hydrocortisone (10 μM) and MELASOLV™ (5.5 μg/ml) for 24 hours.
RNA was extracted with easy-BLUE (INTRON) reagent. cDNA samples were generated from 0.5 μg of RNA using PrimeScript RT reagent Kit. The generated cDNA was amplified using ACCUPOWER™ PCR Premix. The PCR products were further analyzed using PCR Thermal Cycler Dice.
It was confirmed through a […] in the expression of mitophagy marker genes (VDAC, Parkin, PINK) whether it contributes to the activation of mitophagy which removes unnecessary elements from mitochondria.

[2] = hydrocortisone 10 uM 24 hours, MELASOLV 5 ppm 24 hours, FIG. 2

Compound	cell respiration rate (OCR) compared to the control group (Ctrl) (skin fibroblasts; hydrocortisone 10 uM 24 hours alone (stress-induced condition))	maximal respiration (OCR) compared to the control group not treated with anything (skin fibroblasts; [2])	maximal respiration (maximal oxygen consumption rate, OCR) compared to treatment with only hydrocortisone (skin fibroblasts; [2])	cell respiration rate (OCR) reduced by hydrocortisone, effect of treatment (skin fibroblasts; hydrocortisone 10 uM, MELASOLV 5 ppm 24 hours)	expression of mitophagy genes (VDAC, Parkin, PINK) [1]
C[C@]12CCC(=O)C=C1CC[C@@H]1[C@@H]2[C@@H](O)C[C@@]2(C)[C@H]1CC[C@]2(O)C(=O)CO [hydrocortisone, reference compound]	reduced				
COc1cc(/C=C/C(=O)Oc2cc(C)ccc2C(C)C)cc(OC)c1OC [MELASOLV™, (5-methyl-2-propan-2-ylphenyl) (E)-3-(3,4,5-trimethoxyphenyl) prop-2-enoate]		increased higher	statistically significantly higher	recovered	increased
